Experimental data reported in patent US20260373193A1, “CARCINOGENESIS REDUCTION WITH PENTAAZA MACROCYLIC RING COMPLEX” (GALERA LABS, LLC, priority 2023, published 2026).
Entries after “also recorded” stand apart in the source; their conditions may differ.

What was measured:
[1] = test system: VEGFr inhibitor-induced pulmonary disease; conditions: rat; cited from earlier work
[2] = test system: ovarian masses or hemorrhagic cysts; experiment: incidence of ovarian masses or hemorrhagic cysts at necropsy; type: in vivo, mouse (female BALB/c); conditions: for # Ovary Masses/Cysts / % Yield (percentage of mice with ovarian masses or hemorrhagic cysts): GC4419 24 mg/kg i.p.; for occurrence of ovarian masses and hemorrhagic cysts vs untreated: final results (FIG. 4)
Method: (§1) All animal studies conducted used female BALB/c mice irradiated at 77-91 days of age and housed for a lifetime study to determine rates of carcinogenesis and survival. Animals were purchased from Charles River Laboratory, shipped to Brookhaven National Laboratory, and irradiated with the doses and ion species described below.
(§2) Animals were treated or not with GC4419. Those animals treated with GC4419 followed the following strategy. GC4419 was delivered at a dose of 24 mg/kg (mice were weighed prior to drug delivery) interperitoneally (i.p.) at roughly 45-60 minutes prior to radiation exposure. GC4419 was then provided i.p. for the next 6 days, and the animals were shipped to UT Southwestern (UTSW) Medical Center for temporary quarantine before returning to the animal facility. Upon return to UTSW the animals were treated with GC4419 i.p. weekly for another 11 weeks for a total of 12 weeks on treatment.
(§3) Radiation exposures were whole body. The galactic cosmic ray (GCR) simulation exposures used the beam line at the NASA Space Radiation Laboratory at Brookhaven National Lab (BNL) and the γ-ray exposures used a ^137Cs source at BNL. Subsequent to single dose irradiation, animals were returned to their cages.
(§4) Galactic cosmic rays (GCR) are heavy ion radiation characteristic of the deep space environment, and the GCR simulation (GCRsim) at BNL mimics the complex radiation environment in space. The GCRsim ions used are described in Table 1 below.
(§5) Pathological endpoints were also considered. Specifically, lung cancer induction, or carcinogenesis, and other tumors that are evident in numbers large enough to consider as secondary endpoints. These endpoints are described in the following tables and figure. The term “masses” is used to describe an abnormal growth, evident by eye, within a given tissue; for example, the term “lung masses” is used to describe abnormal tissues found in the lung that are collected for pathologic examination.
(§6) Given prior experience with the mouse model of radiation-induced carcinogenesis, it is expected that most, if not all, of the lung masses are tumors. For the ovarian masses, some proportion of the masses are expected to be tumors. For observations of hepatosplenomegaly, many of the enlarged livers and spleens may not reflect tumors of those organs. These may, however, may be present as result of hematologic malignancies, such as leukemias, but that was not assessed in this experiment.
Table 3 presents the incidence of ovarian masses and hemorrhagic cysts observed at necropsy by treatment cohort, including preliminary data for certain γ-ray cohorts through approximately 600 days post-irradiation and for unirradiated animals treated with GC4419 (Control+GC4419) cohort through approximately 400 days post-irradiation. FIG. 4 presents final results for incidence of ovarian masses and hemorrhagic cysts.

established tumors = conditions: cited from earlier work
female BALB/c mice = experiment: long-term survival of irradiated and unirradiated mice treated or not with GC4419; type: in vivo, mouse (female BALB/c)
Method: as §1, §2, §3, §4
FIGS. 1A-1D represent survival in cohorts where animals were exposed to single dose whole-body γ-rays or not irradiated (Control), and treated or not with GC4419. FIGS. 1A-1B present preliminary results through approximately 400-600 days post-irradiation depending on the cohort. FIGS. 1C-1D present final results. As expected, the survival curves show in the animals not treated with GC4419, trends to survival decreasing with increasing γ-ray dose from unirradiated Control to 0.75 Gy (FIGS. 1B & 1D) to 1.5 Gy (FIGS. 1A & 1C).
FIGS. 2A-2D represent survival in cohorts where animals were exposed to single dose whole-body GCRsim radiation or not irradiated (Control), and treated or not with GC4419. FIGS. 2A-2B present results, including preliminary data for unirradiated animals treated with GC4419 (Control+GC4419) cohort through approximately 400 days post-irradiation. FIGS. 2C-2D present final results for all the presented cohorts. As with γ-rays, the survival curves show in the animals not treated with GC4419, trends to survival decreasing with increasing GCRsim dose from unirradiated control to 0.4 Gy to 0.75 Gy. […] This may reflect that GCRsim is a combination of various radiations of varying carcinogenic potential curves.
FIGS. 3A-3C represent survival in cohorts where unirradiated animals (Control) were treated or not with GC4419. FIG. 3A presents results through approximately 400 days post-irradiation with the range of the y-axis covering 95-100% survival. FIG. 3B-3C present final results with the ranges of the y-axis covering 0-100% and 70-100% survival.

hepatosplenomegaly = experiment: incidence of hepatosplenomegaly at necropsy; type: in vivo, mouse (female BALB/c); conditions: for # Enlarged (hepatosplenomegaly) / % Yield (percentage of mice with hepatosplenomegaly): GC4419 24 mg/kg i.p.
Method: as §1, §2, §3, §4, §5, §6
Table 4 presents the incidence of hepatosplenomegaly observed at necropsy by treatment cohort, in general through approximately 700 days, for certain γ-ray cohorts through approximately 600 days post-irradiation, and for unirradiated animals treated with GC4419 (Control+GC4419) cohort through approximately 400 days post-irradiation.

oral mucositis = conditions: head-and-neck cancer patients, chemoradiation, Phase IIB; cited from earlier work

In the case of `[Cl][Mn][Cl].c1cc2nc(c1)CN[C@H]1CCCC[C@@H]1NCCN[C@H]1CCCC[C@@H]1NC2` [GC4419], the pulmonary disease [1] is listed as “attenuate VEGFr inhibitor-induced pulmonary disease”, the “# Ovary Masses/Cysts” value ([2]; GCRsim 0.4 Gy, 224 mice) is listed as 26 and the “% Yield (percentage of mice with ovarian masses or hemorrhagic cysts)” value ([2]; GCRsim 0.4 Gy, 224 mice, untreated pair 12.5) is listed as 11.6%. For the same compound, the “# Ovary Masses/Cysts” value ([2]; GCRsim 0.75 Gy, 248 mice) was 43, the “% Yield (percentage of mice with ovarian masses or hemorrhagic cysts)” value ([2]; GCRsim 0.75 Gy, 248 mice, untreated pair 24.2) was 17.3% and the “occurrence of ovarian masses and hemorrhagic cysts vs untreated” value (“occurrence … vs untreated” below) ([2]; GCRsim 0.75 Gy) was “markedly decreased occurrence of ovarian masses and hemorrhagic cysts”. For the same compound, the “# Ovary Masses/Cysts” value ([2]; unirradiated (0 Gy), 235 mice, preliminary, approx. 400 days) was 0, the “% Yield (percentage of mice with ovarian masses or hemorrhagic cysts)” value ([2]; unirradiated (0 Gy), 235 mice, preliminary, approx. 400 days, untreated pair 10.6) was 0.0% and the “occurrence … vs untreated” value ([2]; unirradiated) was “markedly decreased occurrence of ovarian masses and hemorrhagic cysts”. For the same compound, the “# Ovary Masses/Cysts” value ([2]; γ-ray 0.75 Gy, 248 mice, preliminary for certain γ-ray cohorts (approx. 600 days)) was 22, the “% Yield (percentage of mice with ovarian masses or hemorrhagic cysts)” value ([2]; γ-ray 0.75 Gy, 248 mice, preliminary for certain γ-ray cohorts (approx. 600 days), untreated pair 28.9) was 8.8% and the “occurrence … vs untreated” value ([2]; γ-ray 0.75 Gy, statistically significant, p<0.05) was “markedly decreased occurrence of ovarian masses and hemorrhagic cysts”. The “# Ovary Masses/Cysts” value ([2]; γ-ray 1.5 Gy, 248 mice, preliminary for certain γ-ray cohorts (approx. 600 days)) was 24, the “% Yield (percentage of mice with ovarian masses or hemorrhagic cysts)” value ([2]; γ-ray 1.5 Gy, 248 mice, preliminary for certain γ-ray cohorts (approx. 600 days), untreated pair 21.7) was 9.6% and the “efficacy of radiation and other therapies” value (established tumors) was “enhance the efficacy of radiation and other therapies”. For the same compound, the “survival vs irradiated untreated” value (female BALB/c mice; GCRsim 0.4 Gy, 24 mg/kg i.p., final results) was “neither increases nor decreases survival”, the “survival vs irradiated untreated” value (female BALB/c mice; GCRsim 0.75 Gy, 24 mg/kg i.p., final results, p<0.05) was “statistically significantly increased survival” and the “survival vs unirradiated untreated” value (female BALB/c mice; unirradiated (Control), 24 mg/kg i.p., final results, p<0.01 (FIGS. 3A-3C), 24 mg/kg) was “statistically significantly increased survival; also recorded: appears to increase survival in unirradiated animals”. For the same compound, the “survival, overall” value (female BALB/c mice; variety of radiation types and doses) was “appears to have an effect on survival in animals exposed to a variety of radiation types and doses”, the “survival vs unirradiated animals not treated with GC4419” value (female BALB/c mice; γ-ray 0.75 Gy, 24 mg/kg i.p., final results) was “equivalent survival to unirradiated animals not treated with GC4419” and the “survival vs irradiated untreated” value (female BALB/c mice; γ-ray 0.75 Gy, 24 mg/kg i.p., final results, p<0.01 (FIG. 1D)) was “statistically significantly increased survival”. For the same compound, the “survival vs irradiated untreated” value (female BALB/c mice; γ-ray 1.5 Gy, 24 mg/kg i.p., final results, p<0.05 (FIG. 1C)) was “statistically significantly increased survival”, the “# Enlarged (hepatosplenomegaly)” value (hepatosplenomegaly; GCRsim 0.4 Gy, 224 mice, approx. 700 days) was 33 and the “% Yield (percentage of mice with hepatosplenomegaly)” value (hepatosplenomegaly; GCRsim 0.4 Gy, 224 mice, approx. 700 days, untreated pair 13.9) was 14.7%. For the same compound, the “# Enlarged (hepatosplenomegaly)” value (hepatosplenomegaly; GCRsim 0.75 Gy, 248 mice, approx. 700 days) was 36, the “% Yield (percentage of mice with hepatosplenomegaly)” value (hepatosplenomegaly; GCRsim 0.75 Gy, 248 mice, approx. 700 days, untreated pair 7.7) was 14.5% and the “# Enlarged (hepatosplenomegaly)” value (hepatosplenomegaly; unirradiated (0 Gy), 235 mice, approx. 400 days) was 1. The “% Yield (percentage of mice with hepatosplenomegaly)” value (hepatosplenomegaly; unirradiated (0 Gy), 235 mice, approx. 400 days, untreated pair 5.1) was 0.4%, the “hepatosplenomegaly incidence vs untreated” value (hepatosplenomegaly; within paired cohorts) was “no consistent trend to increased or decreased incidence within paired cohorts” and the “# Enlarged (hepatosplenomegaly)” value (hepatosplenomegaly; γ-ray 0.75 Gy, 248 mice, certain γ-ray cohorts approx. 600 days) was 9. The “% Yield (percentage of mice with hepatosplenomegaly)” value (hepatosplenomegaly; γ-ray 0.75 Gy, 248 mice, certain γ-ray cohorts approx. 600 days, untreated pair 10.6) was 3.6%, the “# Enlarged (hepatosplenomegaly)” value (hepatosplenomegaly; γ-ray 1.5 Gy, 248 mice, certain γ-ray cohorts approx. 600 days) was 17 and the “% Yield (percentage of mice with hepatosplenomegaly)” value (hepatosplenomegaly; γ-ray 1.5 Gy, 248 mice, certain γ-ray cohorts approx. 600 days, untreated pair 7.5) was 6.8%. For the same compound, the oral mucositis (oral mucositis) was “reduce oral mucositis”.
